Reference: patent publication US20220273590A1, “COMPOUNDS FOR PREVENTION AND TREATMENT OF POST-OPERATIVE COGNITIVE DYSFUNCTION” (ABREXA PHARMACEUTICALS, INC., priority 2019, published 2022)

What was measured:
animal model of POCD [1] = assay: Overall outcome in the animal model of POCD (abdominal surgery); type: in vivo, Wistar rats
Method: In this study, the effects of J147 in an animal model of POCD were investigated. Male Wistar rats (˜350 g) were randomly divided into 4 experimental groups; non-surgery; control abdominal surgery; surgery+acute J147 treatment (7 mg/rat by gavage, 4-5 hours before surgery); surgery+chronic J147 (500 mg/kg food, 1 week before surgery until the end of the study). Timed blood samples were collected. Days 9-11 post surgery, general behavior (Open field: OF) and cognitive performance (Novel Object/Novel Location Recognition: NOR/NLR; Morris Water Maze: MWM) were tested. Day 14, rats were sacrificed and blood and brain tissue were collected for further analyses. (Neuro)inflammation was examined by circulating cytokine levels and microglia activation in the brain. Within each cohort rats (n=12 per cohort) were equally divided over four experimental groups, including non-surgery, control surgery, surgery+acute J147 and surgery+chronic J147. Half of the non-surgery and control surgery groups received vehicle gavage and served as control for acute treatment. One week before surgery, chronic treatment J147 treatment started and continued until the end of the experiment. […] The first week post-surgery, rats were weighed daily and food intake was measured. […]

animal model of POCD [2] = assay: Morris Water Maze (MWM) after abdominal surgery; type: in vivo, Wistar rats; settings: chronically treated rats
Method: Male Wistar rats (˜350 g) were randomly divided into 4 experimental groups; non-surgery; control abdominal surgery; surgery+acute J147 treatment (7 mg/rat by gavage, 4-5 hours before surgery); surgery+chronic J147 (500 mg/kg food, 1 week before surgery until the end of the study). Timed blood samples were collected. Days 9-11 post surgery, general behavior (Open field: OF) and cognitive performance (Novel Object/Novel Location Recognition: NOR/NLR; Morris Water Maze: MWM) were tested. Day 14, rats were sacrificed and blood and brain tissue were collected for further analyses. (Neuro)inflammation was examined by circulating cytokine levels and microglia activation in the brain.
Abdominal surgery was performed as described previously by Hovens et al., 2014. Rats were anaesthetized using sevoflurane (±2.5% in air/O2=2/1) and received 0.01 mg/kg buprenorphine s.c. A heating blanket was used to preserve body temperature. An incision was made along the linea alba and the intestines were exteriorised. […]
The second day started with a probe trial to assess early spatial memory. […] We measured how often the rat crossed the place of the platform and how much time he spent in the target quadrant. […]

SMILES: COc1cccc(/C=N/N(C(=O)C(F)(F)F)c2ccc(C)cc2C)c1 [J147]
- impaired cognitive aspects after surgery (animal model of POCD [1]; chronic J147 administration): capable of preventing all impaired cognitive aspects after surgery
- conditions after surgery (body weight loss, behavior in the OF) (animal model of POCD [1]; chronic treatment): generally improved conditions after surgery
- spatial and reversal learning (MWM), effect of treatment (animal model of POCD [2]): not affected
- spatial memory in the MWM (animal model of POCD [2]): significantly improved spatial memory
